Assay results from article PMC8589628, “Characterization and Antimicrobial Studies of Iturin-Like and Bogorol-Like Lipopeptides From Brevibacillus spp. Strains GI9 and SKDU10” (Frontiers in Microbiology, 2021).
Read-outs that look alike come from different tables or passages of the source. Peptide text beside a SMILES is read from it. * marks the point of attachment. X1 = CC(C)CCCCCCCCCCCCC(=O)*

How the values were obtained:
C. albicans MTCC 183 = test: Time kill assay; assay type: cell-based, Candida albicans; settings: for Time to complete killing: C. albicans MTCC 183, 5X MIC, in PBS, CFU count
Description: (§1) Killing kinetics of purified compounds was performed using cells of S. aureus MTCC 1430, V. cholerae MTCC 3904, and C. albicans MTCC 183. Test strains were grown to obtain OD between 0.2 and 0.3 (OD 600 nm), centrifuged, and washed thrice with sterile PBS. Pellets were suspended in PBS and treated with different concentrations of active compounds. Cells after treatment were washed, resuspended, and serially diluted cell suspensions were plated on NA plates. After overnight incubation at 37°C, CFU were recorded ([Singh et al., 2021]).

[1] = system: L. monocytogenes MTCC 839; assay type: cell-based, Listeria monocytogenes
Description: (§2) The antimicrobial activity of HPLC purified compounds was determined against various test strains including S. aureus MTCC 1430, Vibrio cholera MTCC 3904, Bacillus subtilis MTCC 121, Listeria monocytogenes MTCC 839, C. albicans MTCC 183, C. albicans MTCC 1637, C. albicans MTCC 227, C. tropicalis MTCC 184, C. glabrata MTCC 3019, and C. inconspicua MTCC 1074. Antimicrobial activity was also tested against clinical Candida strains and phytopathogenic fungi viz. Fusarium moniliforme MTCC 158, Alternaria brassicicola MTCC 2102 and Colletotrichum acutatum MTCC 1037. Bacterial and Candida test strains were grown in NB and yeast malt broth (YMB), respectively. Fungal test strains were grown in potato dextrose broth (PDB). Minimum inhibitory concentrations (MICs) of purified compounds were evaluated against test organisms by using a microtiter plate dilution assay. Mid-log-phase test strains (5 × 10^5 CFU/ml) were incubated in a 96-well plate with different concentrations of the lipopeptides for 24–48 h at 37°C (final volume of 200 μl). OD was measured at 600 nm after 24 and 48 h for bacteria and yeast, respectively, using an ELISA microplate reader (Thermo Scientific, United States). MIC against phytopathogenic fungi was determined using the 96-well microtiter plate method ([Sharma et al., 2020]).

Chymotrypsin = test: Effect of hydrolytic enzymes on activity (well-diffusion assay); assay type: in vitro ADME; settings: 6h/ 37 °C
Description: (§3) Sensitivities of purified antimicrobial compounds to temperature, pH, and hydrolytic enzymes were confirmed by performing well-diffusion assay. pH stability was determined by adjusting the pH of aliquots of purified antimicrobial compounds from 2.0 to 12.0 (using 10 mM HCl or NaOH) and incubating at room temperature for 4 h. The residual activity was measured after neutralizing the sample to pH 7.0. To determine temperature susceptibility, antimicrobial compounds were incubated at different temperatures ranging from 37 to 100°C for 1 h and 121°C for 15 min, and then residual antimicrobial activity was determined after cooling the samples to room temperature. Similarly, proteolytic enzymes such as trypsin and proteinase K were used at three different concentrations (0.1, 1.0, and 5.0 mg/ml) to ensure their effect on the activity of antimicrobial compounds. The enzyme solutions were prepared in 50 mM phosphate buffer (pH 7.0). All reactions were performed at 37°C for 6 h followed by deactivation of the enzyme by heating the solution in boiling water for 5 min before performing the activity assay.

Trypsin = test: as above; assay type: in vitro ADME; settings: for Tolerance to trypsin treatment: 37°C, 6 h; for Residual activity: Trypsin, 6h/ 37 °C, 50 mM phosphate buffer (pH 7.0), enzyme 0.1, 1.0 and 5.0 mg/ml used, well-diffusion assay
Description: as §3

Proteinase K = Proteinase K (Parengyodontium album, UniProt P06873); test: as above; assay type: in vitro ADME; settings: for Tolerance to proteinase K treatment: 37°C, 6 h; for Residual activity: Proteinase K, 6h/ 37 °C, 50 mM phosphate buffer (pH 7.0), enzyme 0.1, 1.0 and 5.0 mg/ml used, well-diffusion assay
Description: as §3

[2] = system: Spores of A. brassicicola MTCC 2102; test: Phase-contrast microscopy of treated spores; assay type: cell-based, Alternaria brassicicola; settings: A. brassicicola MTCC 2102 spores, 2X MIC, 2 h
Description: Effect of antimicrobial compounds on cell membrane of test organisms was determined by transmission electron microscopy (TEM). Test strains, S. aureus MTCC 1430, V. cholerae MTCC 3904, and C. albicans MTCC 183 were cultured to mid-log phase, washed, and re-suspended in 1X PBS (OD 600 nm 0.2). The cell suspensions were incubated (37°C) with 1X MIC of purified antimicrobial compounds for 30 min. Cells after treatment were centrifuged, washed twice with PBS. For TEM, cells of S. aureus MTCC 1430 and V. cholerae MTCC 3904 were subjected to negative stain with 0.1% (w/v) sodium phosphotungstate (PTA, Sigma, United States) in water for 1 min, on a carbon-coated copper grid with 300 mesh (Polyscience, United States) and observed under transmission electron microscope (JEOL JEM 2100, United States) ([Raje et al., 2006]). For SEM, C. albicans MTCC 183 cells were immobilized on poly L-lysine glazed glass slides and incubated at 4°C for 2 h. Cells were fixed using Karnovsky’s fixative and serially dehydrated with gradient of ethanol, freeze dried, and platinum coated. ZEISS EV040 (United States) scanning electron microscope was employed to photograph the cells ([Raje et al., 2006]). Spores of A. brassicicola MTCC 2102 were treated with 2X MIC of lipopeptides for 2 h and observed under phase-contrast microscope (Nickon H600L, Japan). […]

V. cholerae MTCC 3904 [3] = assay type: cell-based, Vibrio cholera
Description: as §2

V. cholerae MTCC 3904 [4] = test: Time kill assay; assay type: cell-based; settings: in PBS, CFU count
Description: as §1

S. aureus MTCC 1430 = test: Time kill assay; assay type: cell-based, Staphylococcus aureus; settings: in PBS, CFU count
Description: as §1

Lipase = test: Effect of hydrolytic enzymes on activity (well-diffusion assay); assay type: in vitro ADME; settings: 6h/ 37 °C

Proteinase K, sequence (P06873 106-384): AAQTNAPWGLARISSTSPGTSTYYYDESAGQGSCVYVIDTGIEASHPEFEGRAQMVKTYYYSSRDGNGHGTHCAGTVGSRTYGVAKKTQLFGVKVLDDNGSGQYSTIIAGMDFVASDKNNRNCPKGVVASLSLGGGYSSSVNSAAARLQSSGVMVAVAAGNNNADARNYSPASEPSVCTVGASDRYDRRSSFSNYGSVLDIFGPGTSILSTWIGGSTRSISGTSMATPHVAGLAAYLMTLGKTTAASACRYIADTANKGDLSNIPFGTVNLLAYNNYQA

Row | Molecule | Complete killing of cells within 4 h (C. albicans MTCC 183; C. albicans MTCC 183, 1X MIC) | Complete killing of cells within 4 h (C. albicans MTCC 183; C. albicans MTCC 183, 2X MIC) | Time to complete killing (C. albicans MTCC 183) | MIC value ([1]; L. monocytogenes MTCC 839, NB, 5 × 10^5 CFU/ml, 37°C, OD 600 nm after 24 h, 10–550 μg/ml in 5 μg/ml increments) | Residual activity (Chymotrypsin) | Tolerance to trypsin treatment (Trypsin) | Residual activity (Trypsin) | Tolerance to proteinase K treatment (Proteinase K) | Residual activity (Proteinase K) | Effect on spores (phase-contrast microscopy) [2] | MIC value (V. cholerae MTCC 3904 [3]; V. cholerae MTCC 3904, NB, 5 × 10^5 CFU/ml, 37°C, OD 600 nm after 24 h, 10–550 μg/ml in 5 μg/ml increments) | Time to complete reduction in the load (V. cholerae MTCC 3904 [4]; V. cholerae MTCC 3904, 1X MIC) | Time to complete reduction in the load (V. cholerae MTCC 3904 [4]; V. cholerae MTCC 3904, 2X MIC) | Time to complete reduction in population (S. aureus MTCC 1430; S. aureus MTCC 1430, 1X MIC) | Time to complete reduction in population (S. aureus MTCC 1430; S. aureus MTCC 1430, 2X MIC) | Residual activity (Lipase) | Reduction in growth (C. albicans MTCC 183; C. albicans MTCC 183, 1X MIC, 4 h) | MIC value ([1]; MTCC 839, 24 h) | MIC value (V. cholerae MTCC 3904 [3]; MTCC 3904, 24 h)
1 | Dhb-Tyr-Orn-Ile-Val-Val-Lys-Val-Leu-Asp-Val-Glu [BLL, bogorol like lipopeptide purified from Brevibacillus sp. strain SKDU10; 12 amino acids and C17 hydroxy fatty acid side chain] | not observed | not observed | ≤ 4 h | 230 to 240 µg/mL | 94.4% | resistant | 91.6% | resistant | 77.7% | structural irregularity | 140 to 150 µg/mL | ≤ 30 min | ≤ 30 min | ≤ 30 min | ≤ 30 min | 100% |  |  | 
2 | CC(C)CCCCCCCCCCCCC(=O)N[C@H](C(=O)NCC(=O)N[C@@H](C)C(=O)N[C@@H](CO)C(=O)N[C@@H](Cc1c[nH]cn1)C(=O)N[C@@H](CCC(N)=O)C(=O)N[C@@H](CCC(N)=O)C(=O)O)[C@@H](C)O [ILL] (X1-TGASHQQ-OH; N-terminus assumed) |  |  | 4 h |  | 91.1% | resistant | 94.1% | resistant | 82.3% | structural irregularity |  | ≤ 60 min | ≤ 60 min | ≤ 60 min | ≤ 30 min | 100% | 2 log | 200 to 220 µg/mL | 105 to 115 µg/mL
